Measured values published in patent US20150342954A1, “2-BENZYL, 3-(PYRIMIDIN-2-YL) SUBSTITUTED PYRAZOLES USEFUL AS SGC STIMULATORS” (IRONWOOD PHARMACEUTICALS, INC., priority 2011, published 2015).
Where two headings read alike, the source gives them in different places.

Columns and labels:
[1] = target: T1, soluble guanylate cyclase (sGC) (Homo sapiens, UniProt Q02108+Q02153); test: sGC-HEK-cGMP assay (run with SNP incubation); format: cell-based; conditions: for Emax: 10 μM SNP, 100% = 30 μM BAY 41-2272 with 10 μM SNP, read-out: HEK assay Emax-unconstrained (Percent); for HEK MEC-10: concentration that would elicit 10% of the Emax in the presence of 10 μM SNP; for EC50: in the presence of 10 μM SNP
T1 construct: endogenously expressing soluble guanylate cyclase (sGC); endogenous in cells; host or cells: HEK293
T1 sequence (Q02153 1-619): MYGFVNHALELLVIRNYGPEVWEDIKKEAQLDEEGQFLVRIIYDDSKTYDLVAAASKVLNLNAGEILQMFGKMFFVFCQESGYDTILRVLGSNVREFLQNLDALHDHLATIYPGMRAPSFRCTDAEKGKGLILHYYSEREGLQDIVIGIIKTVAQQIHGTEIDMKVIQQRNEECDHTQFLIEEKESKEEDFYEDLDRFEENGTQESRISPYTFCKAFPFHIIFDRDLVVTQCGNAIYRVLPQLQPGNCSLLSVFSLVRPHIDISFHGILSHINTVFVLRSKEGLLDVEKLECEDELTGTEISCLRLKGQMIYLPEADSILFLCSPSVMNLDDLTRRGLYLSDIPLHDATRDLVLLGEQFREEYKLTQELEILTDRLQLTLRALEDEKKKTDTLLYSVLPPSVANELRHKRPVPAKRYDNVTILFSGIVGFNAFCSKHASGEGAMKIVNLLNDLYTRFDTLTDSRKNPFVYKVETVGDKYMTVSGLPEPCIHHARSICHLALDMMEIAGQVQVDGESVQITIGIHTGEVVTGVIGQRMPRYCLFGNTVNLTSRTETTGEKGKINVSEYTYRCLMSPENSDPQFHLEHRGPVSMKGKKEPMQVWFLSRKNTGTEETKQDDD
T1 sequence (Q02108 1-690): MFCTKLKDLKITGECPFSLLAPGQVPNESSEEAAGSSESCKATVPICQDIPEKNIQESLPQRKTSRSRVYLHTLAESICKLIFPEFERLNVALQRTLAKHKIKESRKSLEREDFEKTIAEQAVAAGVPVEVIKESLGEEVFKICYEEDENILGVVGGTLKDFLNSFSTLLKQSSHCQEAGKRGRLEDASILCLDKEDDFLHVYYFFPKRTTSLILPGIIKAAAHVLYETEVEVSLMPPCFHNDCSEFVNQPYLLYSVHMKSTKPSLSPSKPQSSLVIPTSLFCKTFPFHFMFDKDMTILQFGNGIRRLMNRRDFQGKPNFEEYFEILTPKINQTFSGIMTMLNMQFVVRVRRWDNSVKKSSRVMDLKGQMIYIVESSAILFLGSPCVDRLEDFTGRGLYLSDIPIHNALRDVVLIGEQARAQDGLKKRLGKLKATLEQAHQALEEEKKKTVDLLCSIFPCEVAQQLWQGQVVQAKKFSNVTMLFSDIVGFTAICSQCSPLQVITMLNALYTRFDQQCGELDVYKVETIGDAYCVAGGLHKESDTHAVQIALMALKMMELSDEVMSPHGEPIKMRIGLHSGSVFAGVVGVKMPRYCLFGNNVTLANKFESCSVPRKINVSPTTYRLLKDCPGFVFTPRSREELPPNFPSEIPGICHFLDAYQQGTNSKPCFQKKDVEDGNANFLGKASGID
Method in brief: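 HEK293 cells with endogenous sGC were pre-treated 15 min at 37 °C with 0.5 mM IBMX, then exposed to test compound plus sodium nitroprusside for 10 min at 37 °C. Cells were lysed in 0.1 M HCl (4 °C, 30 min), and cGMP was quantified by LC/MS against a standard curve. EC50 values came from concentration-response curves.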

[2] = target: T2, Human soluble guanylate cyclase enzyme (hsGC) (Homo sapiens, UniProt Q02108+Q02153); test: Purified human sGC enzyme activity assay (without SNP); format: biochemical; conditions: compound at 30 μM, absence of SNP, fold over DMSO control
T2 construct: purchased Enzo Inc. ALX-201-177
T2 sequence (Q02153 1-619): T1 sequence (Q02153 1-619)
T2 sequence (Q02108 1-690): T1 sequence (Q02108 1-690)
Experimental: Biological Activity Measurements by the Purified Human sGC Enzyme Activity Assay
(§1) Human soluble guanylate cyclase enzyme (hsGC) obtained from Enzo Inc. (P/N: ALX-201-177) was used to evaluate the activity of test compounds. The assay reactions contained 0.1 M Tris (pH 8.0), 0.5 mg/mL BSA (pH 8.0), 2 mM DTT, 2 mM MgCl2, 300 μM GTP, 1 mM 3-isobutyl-1-methylxanthine (IBMX) and 5 ng human soluble guanylate cyclase enzyme. Test compounds in DMSO were then added (2 μL, 10 or 30 μM final concentration) and incubated (200 μL, 96-well plate format) at 37° C. for 30 minutes. The controls were carried out using 2 μL DMSO. After the 30 minute incubation, the reaction was stopped with the addition of 200 μl of cold methanol. The plate was then centrifuged at 3,200 rpm for 10 minutes at room temperature. Supernatants (200 μL) were collected and transferred to a new 96 well plate for analysis.
(§2) An 8 point cGMP (Sigma-Aldrich P/N: G6129) standard curve was prepared in assay buffer ranging from 0.156-20 μM. Samples for the cGMP standard curve were then diluted with an equal volume of methanol resulting in final cGMP concentrations of 0.078-10 μM.
(§3) The cGMP standard curve was generated using GraphPad Prism Software.
(§4) Calculations: Specific Activity was determined by the amount of cGMP formed (nmoles) per mg of sGC per min. Enzyme “fold-change” was calculated by dividing Specific Activity for test compounds by Specific Activity of DMSO controls.

[3] = target: T2, Human soluble guanylate cyclase enzyme (hsGC); test: Purified human sGC enzyme synergy assay in the presence of 1 μM sodium nitroprusside (SNP); format: biochemical; conditions: compound at 30 μM, presence of 1 μM SNP
Experimental: as §1, §2, §3, §4
Biological Measurement by the Purified Human sGC Enzyme Synergy Performed in the Presence of Sodium Nitroprusside (SNP), a Nitric Oxide Donor
Enzyme assays were performed as described above, but was done in the absence or presence of 1 μM sodium nitroprusside (SNP).

[4] = Table 3A, top of concentration-response curve not fitted to 100%
[5] = Table 3D, read-out: HEK assay EC50
[6] = top of concentration-response curve not fitted to 100%, Table 3D, read-out: HEK assay EC50-unconstrained
[7] = Table 3B, top of concentration-response curve not fitted to 100%
[8] = Table 3E, read-out: HEK assay EC50
[9] = top of concentration-response curve not fitted to 100%, Table 3E, read-out: HEK assay EC50-unconstrained

| Compound | Emax [1, 4] [%] | HEK MEC-10 ([1]; Table 3D) | EC50 [1, 5] [µM] | EC50 [1, 6] [µM] | Enzyme Activity (increase at 30 μM without SNP) ([2]; Table 5A) | Enzyme Activity (increase at 30 μM with SNP) ([3]; Table 5A) | Emax [1, 7] [%] | EC50 [1, 9] [µM] | Enzyme Activity (increase at 30 μM without SNP) ([2]; Table 5B) | Enzyme Activity (increase at 30 μM with SNP) ([3]; Table 5B) | also measured |
| --- | --- | --- | --- | --- | --- | --- | --- | --- | --- | --- | --- |
| Nc1nc(-c2cc(-c3ncco3)n(Cc3ccccc3F)n2)ncc1NC(=O)C1(F)CC1 [Compound 31] | 80 to 100 | C (0.1 to <1 μM) | < 20 | 1 to 5 | B (2 to <5 fold increase) | D (10 or <20 fold increase) | – | – | – | – | – |
| Oc1nc(-c2cc(-c3ccon3)n(Cc3ccccc3F)n2)ncc1-c1nccs1 [Compound 42] | 40 to 60 | C (0.1 to <1 μM) | < 20 | 0.5 to 1 | B (2 to <5 fold increase) | D (10 or <20 fold increase) | – | – | – | – | – |
| O=c1[nH]c(-c2cc(-c3ncon3)n(Cc3cc(F)ccc3F)n2)ncc1F [Compound 75] | – | – | – | – | – | – | 40 to 60 | 1 to 5 | B (2 to <5 fold increase) | C (5 to <10 fold increase) | HEK MEC-10 ([1]; Table 3E): C (0.1 to <1 μM); EC50 [1, 8]: 40 to 60 µM |
| CCCCCCCCCCC(=O)Nc1cnc(-c2cc(-c3ccon3)n(Cc3ccccc3F)n2)nc1N [Compound 58] | – | E (10 to 50 μM) | 600 to 900 | – | A (no increase to <2 fold increase) | B (2 to <5 fold increase) | – | – | – | – | – |
| O=c1[nH]c(-c2cc(-c3ccon3)n(Cc3cccnc3F)n2)ncc1F [Compound 67] | 20 to 40 | B (0.01 to <0.1 μM) | 40 to 60 | 0.01 to 0.5 | A (no increase to <2 fold increase) | B (2 to <5 fold increase) | – | – | – | – | – |
| CC1(C)C(=O)Nc2nc(-c3cc(-c4ccon4)n(Cc4ccccc4F)n3)ncc21 [Compound 100] | – | – | – | – | – | – | – | – | – | – | Emax ([1]; Table 3C, top of concentration-response curve not fitted to 100%): 60 to 80%; HEK MEC-10 ([1]; Table 3F): C (0.1 to <1 μM); EC50 ([1]; Table 3F, read-out: HEK assay EC50): < 20 µM; EC50 ([1]; top of concentration-response curve not fitted to 100%, Table 3F, read-out: HEK assay EC50-unconstrained): 0.5 to 1 µM; Enzyme Activity (increase at 30 μM without SNP) ([2]; Table 5C): D (10 or <20 fold increase); Enzyme Activity (increase at 30 μM with SNP) ([3]; Table 5C): F (>30 fold increase) |
| Oc1nc(-c2cc(-c3nccs3)n(Cc3ccccc3F)n2)ncc1F [Compound 44] | 40 to 60 | C (0.1 to <1 μM) | < 20 | 0.01 to 0.5 | B (2 to <5 fold increase) | D (10 or <20 fold increase) | – | – | – | – | – |
| O=c1[nH]c(-c2cc(-c3ccon3)n(Cc3ccccc3F)n2)nc(CF)c1F [Compound 79] | – | – | – | – | – | – | 40 to 60 | 5 to 10 | B (2 to <5 fold increase) | D (10 or <20 fold increase) | HEK MEC-10 ([1]; Table 3E): D (1 to <10 μM); EC50 [1, 8]: 40 to 60 µM |
| CC(C)(CC(F)(F)F)C(=O)Nc1cnc(-c2cc(-c3ccon3)n(Cc3ccccc3F)n2)nc1N [Compound 53] | 60 to 80 | C (0.1 to <1 μM) | < 20 | 1 to 5 | C (5 to <10 fold increase) | E (20 to 30 fold increase) | – | – | – | – | – |
| Oc1nc(-c2cc(-c3ccoc3)n(Cc3ccccc3F)n2)ncc1F [Compound 87] | – | – | – | – | – | – | 40 to 60 | 0.01 to 0.5 | D (10 or <20 fold increase) | E (20 to 30 fold increase) | – |
| COc1nc(-c2cc(-c3ccon3)n(Cc3ccccc3F)n2)ncc1F [Compound 28] | 60 to 80 | B (0.01 to <0.1 μM) | – | – | C (5 to <10 fold increase) | D (10 or <20 fold increase) | – | – | – | – | – |
| Oc1nc(-c2cc(-c3ccon3)n(Cc3cccc(F)c3F)n2)ncc1Cl [Compound 76] | – | – | – | – | – | – | 80 to 100 | 0.01 to 0.5 | D (10 or <20 fold increase) | E (20 to 30 fold increase) | HEK MEC-10 ([1]; Table 3E): B (0.01 to <0.1 μM); EC50 [1, 8]: 60 to 100 µM |
